Measurements reported in US12649733B2, “3,6-diamino-pyridazin-3-yl derivatives, pharmaceutical compositions containing them and their uses as pro-apoptotic agents” (LES LABORATOIRES SERVIER, priority 2019, dated 2026).

Experiments:
BCLXL = BCLXL (Homo sapiens, UniProt Q07817, V10N/V9A); assay: AlphaLISA assay (BIM peptide displacement); format: binding; conditions: 20 pM protein, 1 nM peptide
Description: AlphaLISA assay measures an increase in alpha signal upon binding biotinylated GST(1-218)-(FACTOR_XA)-hs ? (2-209)(SEQ ID:02—GST UniProtKB® primary accession number P08515 and BCLXL UniProtKB® primary accession number Q07817-1) coupled to a Streptavidin labeled Alpha donor bead to N-terminally labeled peptide derived from BIM (Fluorescein-betaAla-Ahx-SEQID:05, wherein SEQ ID:05 is […]) coupled to an Anti-FTIC AlphaLISA acceptor bead.
GST(1-218)(FACTOR_XA)-hs ? (2-209) was biotinylated in 50 mM phosphate buffer using a 20 fold excess of EZ Link NHS-LC-Biotin (thermoFisher catalogue number 21336) overnight at 4° C.
The addition of a compound which binds competitively to the same site as the peptide will result in an decrease in the Alpha signal of the available donor bead-protein-peptide-acceptor bead complex due to displacement of the peptide.
An 11-point serial dilution of each compound was prepared in DMSO, the final buffer conditions were 10 mM 4-(2-hydroxyethyl)-1-piperazineethanesulfonic acid [HEPES], 150 mM NaCl, 0.05% Tween 20, pH 7.4 and 4% DMSO. The final protein concentration in the assay was 20 pM with the peptide present at 1 nM). Alpha beads were used at a final concentration of 5 ug/mL. The experiments were incubated for overnight at 23° C. after acceptor bead addition. Finally the donor bead is added and incubated for 2 hours at 23° C. before Alpha signal measured on a Biotek Synergy2 plate reader (Excitation 680 nm, emission 615 nm).

Bcl-xL protein = molecular target: T1, Bcl-xL protein (Homo sapiens, UniProt Q07817, N197C); assay: Fluorescence quenching assay (PUMA peptide displacement); format: binding; conditions: 1 nM protein, 400 nM peptide, 2 hours at 23° C.; KI determined from IC50
T1 construct: (2-197)[N197C]; His-His (two His8 stretches joined by a Gly/Ala/Ser/Thr linker)
Procedure, shortened: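 Displacement of a TQ5WS-quencher-labelled PUMA peptide (400 nM) from Cy5-labelled His-tagged Bcl-xL 2-197 N197C (1 nM) raises fluorescence. An 11-point compound dilution was incubated 2 h at 23 °C in HEPES 10 mM, NaCl 150 mM, 0.05% Tween 20, pH 7.4, 5% DMSO. Fluorescence was read at Ex 620/Em 680 nm, and KI was derived from IC50.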

H146 cells = assay: H146 cell viability, MTT assay; format: cell-based; conditions: Homo sapiens, NCI-H146, 48 h, 48 h exposure
Procedure, shortened: (§1)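 Cells grown in RPMI 1640 with 10% heat-inactivated FBS at 37° C, 5% CO2, exposed 48 h to nine 3.16-fold serial compound dilutions in triplicate. MTT added for 4 h, SDS/HCl solubilisation overnight, absorbance at 540 nm; IC50 by four-parameter fit.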

MOLT-4 cells = assay: MOLT-4 cell viability, MTT assay; format: cell-based; conditions: Homo sapiens, MOLT-4, 48 h, 48 h exposure
Procedure, shortened: as §1

BCLXL, sequence (Q07817 with tags, fused parts or gaps V9A/V10N): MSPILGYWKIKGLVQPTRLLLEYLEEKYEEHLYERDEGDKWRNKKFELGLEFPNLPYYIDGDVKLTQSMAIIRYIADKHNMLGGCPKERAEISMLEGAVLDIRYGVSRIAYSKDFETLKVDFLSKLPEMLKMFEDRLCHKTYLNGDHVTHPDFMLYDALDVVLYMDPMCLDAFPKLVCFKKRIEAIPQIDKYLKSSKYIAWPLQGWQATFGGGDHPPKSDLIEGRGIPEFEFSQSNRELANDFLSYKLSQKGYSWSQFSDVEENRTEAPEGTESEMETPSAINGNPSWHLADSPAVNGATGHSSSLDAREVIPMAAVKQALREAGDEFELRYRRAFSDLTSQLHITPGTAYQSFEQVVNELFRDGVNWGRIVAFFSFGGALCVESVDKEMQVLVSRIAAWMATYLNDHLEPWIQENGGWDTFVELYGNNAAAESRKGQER
T1 sequence (Q07817 2-197 N197C): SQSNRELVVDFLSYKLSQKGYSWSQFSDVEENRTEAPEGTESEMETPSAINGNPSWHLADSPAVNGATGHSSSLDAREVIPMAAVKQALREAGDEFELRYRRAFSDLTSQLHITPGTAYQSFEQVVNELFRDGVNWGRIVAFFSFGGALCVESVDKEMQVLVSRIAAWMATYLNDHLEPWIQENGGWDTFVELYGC

SMILES | IC50 (BCLXL) | also measured
CC(=O)N1CC(c2sc(N(C)c3cc(C)c(Nc4nc5ccccc5s4)nn3)nc2C(=O)O)C1 [Example 152, 5-(1-Acetylazetidin-3-yl)-2-({6-[(1,3-benzothiazol-2-yl)amino]-5-methylpyridazin-3-yl}(methyl)amino)-1,3-thiazole-4-carboxylic acid] | 2.3 nM | 
COC(CO)CN(c1cc(C)c(Nc2nc3ccccc3s2)nn1)c1nc(C(=O)O)cs1 (stereo not drawn) [Example 111, 2-[[6-(1,3-Benzothiazol-2-ylamino)-5-methyl-pyridazin-3-yl]-(3-hydroxy-2-methoxy-propyl)amino]thiazole-4-carboxylic acid] | 27 nM | 
COC(CO)CCCN(c1cc(C)c(Nc2nc3ccccc3s2)nn1)c1nc(C(=O)O)cs1 (stereo not drawn) [Example 133, 2-[[6-(1,3-Benzothiazol-2-ylamino)-5-methyl-pyridazin-3-yl]-(5hydroxy-4-methoxy-pentyl)amino]thiazole-4-carboxylic acid] | 8.9 nM | 
Cc1cc(N(CCCO)c2nc(C(=O)O)c(CCCOc3ccc(C#CCN(C)C)cc3F)s2)nnc1Nc1nc2ccccc2s1 [Example 126, 2-[[6-(1,3-Benzothiazol-2-ylamino)-5-methyl-pyridazin-3-yl]-(3-hydroxypropyl)amino]-5-[3-[4-[3-(dimethylamino)prop-1-ynyl]-2-fluoro-phenoxy]propyl]thiazole-4-carboxylic acid] | 0.023 nM | 
Cc1cc(N(CCCC(O)CN(C)C)c2nc(C(=O)O)cs2)nnc1Nc1nc2ccccc2s1 (stereo not drawn) [Example 143, 2-[[6-(1,3-Benzothiazol-2-ylamino)-5-methyl-pyridazin-3-yl]-[5-(dimethylamino)-4-hydroxy-pentyl]amino]thiazole-4-carboxylic acid] | 22 nM | 
COCC(O)CCCN(c1cc(C)c(Nc2nc3ccccc3s2)nn1)c1nc(C(=O)O)cs1 (stereo not drawn) [Example 132, 2-[[6-(1,3-Benzothiazol-2-ylamino)-5-methyl-pyridazin-3-yl]-(4-hydroxy-5-methoxy-pentyl)amino]thiazole-4-carboxylic acid] | 7.7 nM | 
Cc1cc(N(CCCCO)c2nc(C(=O)O)cs2)nnc1Nc1nc2ccccc2s1 [Example 110, 2-[[6-(1,3-Benzothiazol-2-ylamino)-5-methyl-pyridazin-3-yl]-(4-hydroxybutyl)amino]thiazole-4-carboxylic acid] | 0.48 nM | 
Cc1cc(N(CCCCCO)c2nc(C(=O)O)cs2)nnc1Nc1nc2ccccc2s1 [Example 125, 2-[[6-(1,3-Benzothiazol-2-ylamino)-5-methyl-pyridazin-3-yl]-(5-hydroxypentyl)amino]thiazole-4-carboxylic acid] | 8.6 nM | 
Cc1cc(N(C)c2nc(C(=O)O)c(C3CN(C(=O)c4ccccc4)C3)s2)nnc1Nc1nc2ccccc2s1 [Example 136, 5-(1-Benzoylazetidin-3-yl)-2-({6-[(1,3-benzothiazol-2-yl)amino]-5-methylpyridazin-3-yl}(methyl)amino]-1,3-thiazole-4-carboxylic acid] | 7.7 nM | 
CNCC#Cc1ccc(OCCCc2sc(N(CCCCCN(C)C)c3cc(C)c(Nc4nc5ccccc5s4)nn3)nc2C(=O)O)c(F)c1 [Example 213, 2-[[6-(1,3-Benzothiazol-2-ylamino)-5-methyl-pyridazin-3-yl]-[5-(dimethylamino)pentyl]amino]-5-[3-[2-fluoro-4-[3-(methylamino)prop-1-ynyl]phenoxy]propyl]thiazole-4-carboxylic acid] |  | Ki (Bcl-xL protein): 0.0015 nM; IC50 (H146 cells): 72.8 nM; IC50 (MOLT-4 cells): 93.6 nM
Cc1cc(N(CCCC(O)C[N+]2(C)CCN(C)CC2)c2nc(C(=O)[O-])c(CCCOc3ccc(C#CCN(C)C)cc3F)s2)nnc1Nc1nc2ccccc2s1 (stereo not drawn) [Example 221, 2-[[6-(1,3-Benzothiazol-2-ylamino)-5-methyl-pyridazin-3-yl]-[5-(1,4-dimethylpiperazin-1-ium-1-yl)-4-hydroxy-pentyl]amino]-5-[3-[4-[3-(dimethylamino)prop-1-ynyl]-2-fluoro-phenoxy]propyl]thiazole-4-carboxylate] |  | Ki (Bcl-xL protein): 0.0017 nM; IC50 (H146 cells): 94.4 nM; IC50 (MOLT-4 cells): 29.5 nM
